Assay results as given in PMC6255212, “Coupled molecular dynamics mediate long- and short-range epistasis between mutations that affect stability and aggregation kinetics” (Proceedings of the National Academy of Sciences of the …, 2018).

Biological target: T1, Escherichia coli transketolase (TK) (Escherichia coli, UniProt P27302)
T1 construct: gene tktA; homodimer of 70- to 74-kDa monomers; holo enzyme with ThDP and Mg2+
Experiment: steady-state enzyme kinetics
Assay type: biochemical
Conditions: 50 mM Li-HPA (lithium beta-hydroxypyruvate, saturating), 4-80 mM glycolaldehyde

T1 sequence (P27302 2-663): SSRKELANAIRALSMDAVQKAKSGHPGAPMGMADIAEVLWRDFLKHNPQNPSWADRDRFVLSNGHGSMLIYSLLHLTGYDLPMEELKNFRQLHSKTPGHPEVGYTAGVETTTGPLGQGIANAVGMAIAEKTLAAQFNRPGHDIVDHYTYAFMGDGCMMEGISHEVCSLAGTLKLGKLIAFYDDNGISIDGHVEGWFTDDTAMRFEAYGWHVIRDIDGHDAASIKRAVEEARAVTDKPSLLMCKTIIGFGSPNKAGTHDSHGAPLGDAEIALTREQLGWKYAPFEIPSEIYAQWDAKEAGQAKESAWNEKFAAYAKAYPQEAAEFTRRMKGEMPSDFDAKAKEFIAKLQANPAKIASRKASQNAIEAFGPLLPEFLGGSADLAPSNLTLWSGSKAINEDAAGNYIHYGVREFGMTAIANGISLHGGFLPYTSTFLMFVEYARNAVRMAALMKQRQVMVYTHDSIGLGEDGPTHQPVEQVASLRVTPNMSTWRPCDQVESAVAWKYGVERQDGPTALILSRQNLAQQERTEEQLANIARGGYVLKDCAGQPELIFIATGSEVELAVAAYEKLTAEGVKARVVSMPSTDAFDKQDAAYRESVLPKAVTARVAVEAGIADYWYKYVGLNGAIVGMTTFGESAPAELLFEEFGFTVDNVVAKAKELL

Km: 20.3 mM
Structure (SMILES): O=CCO [glycolaldehyde]
